Test results: patent US11684607B2, “Secnidazole for use in the treatment of bacterial vaginosis” (priority 2014, dated 2023)
Read-outs that look alike come from different tables or passages of the source.

Assay: Effect of a single 2 g dose of SYM-1219 on the plasma pharmacokinetics of EE2 and NET in healthy female subjects
Type: in vivo, human
Procedure: Methods: Fifty-four (54) healthy female subjects, ages 18-65, received EE2/NET alone and in combination, where SYM-1219+EE2/NET were co-administered on Day 1 (Group B1; N=27) or SYM-1219 on Day 1 and EE2/NET on Day 2 (Group B2; N=27). Serial blood samples were drawn to measure plasma concentrations of EE2/NET. […] Safety was evaluated by recording of adverse events, vital signs, ECGs and standard laboratory tests.

[1] = EE2/NET administered 1 day after SYM-1219
[2] = Group B1: Period 2 (EE2/NET followed by SYM-1219 2 grams on Day 1) vs Period 1 (EE2/NET alone)
[3] = Group B1 Period 1: EE2/NET alone
[4] = Group B1 Period 2: EE2/NET followed by SYM-1219 2 grams on Day 1
[5] = Group B2: Period 2 (SYM-1219 2 grams on Day 1, EE2/NET on Day 2) vs Period 1 (EE2/NET alone)
[6] = Group B2: SYM-1219 2 g on Day 1, EE2/NET on Day 2
[7] = Group B2 Period 1: EE2/NET alone
[8] = Group B2 Period 2: SYM-1219 2 grams on Day 1, EE2/NET on Day 2

C#C[C@]1(O)CC[C@H]2[C@@H]3CCC4=CC(=O)CC[C@@H]4[C@H]3CC[C@@]21C [NET, norethindrone]
NET Cmax, AUC0-t or AUC0-∞ increase [1]: 9-16%
NET upper value of the 90% CI for Cmax [1]: 131%
NET AUC0-t, Geometric LSMean % Ratio (100 * Test/Reference) [2]: 115.52%
NET AUC0-∞, Geometric LSMean % Ratio (100 * Test/Reference) [2]: 116.27%
NET Cmax, Geometric LSMean % Ratio (100 * Test/Reference) [2]: 113.18%
NET Cmax and AUC increase (Group B1: SYM-1219 2 g and EE2/NET co-administered on Day 1): 13%
NET λz, Mean [3]: 0.07709 h⁻¹
NET λz, Median [3]: 0.07966 h⁻¹
NET λz, Mean [4]: 0.07886 h⁻¹
NET λz, Median [4]: 0.07642 h⁻¹
NET AUC0-t, Geometric LSMean % Ratio (100 * Test/Reference) [5]: 110.78%
NET AUC0-∞, Geometric LSMean % Ratio (100 * Test/Reference) [5]: 108.75%
NET Cmax, Geometric LSMean % Ratio (100 * Test/Reference) [5]: 116.46%
NET Cmax increase [6]: 16%
change in NET AUC [6]: no change
NET λz, Mean [7]: 0.07369 h⁻¹
NET λz, Median [7]: 0.07458 h⁻¹
NET Cmax, Mean [8]: 10.6 ng/mL
NET λz, Mean [8]: 0.07685 h⁻¹
NET λz, Median [8]: 0.07539 h⁻¹
NET Cmax, AUC0-t or AUC0-∞ increase (SYM-1219 administered immediately after EE2/NET): 13-16%
AUC(0-t) (female, human, plasma, Group B1 Period 1: EE2/NET alone, read-out: NET AUC0-t, Geometric LSMeans): 42.2 ng·h/mL
AUC(0-t) (female, human, plasma, Group B1 Period 1: EE2/NET alone, read-out: NET AUC0-t, Mean): 49.4 ng·h/mL
AUC(0-t) (female, human, plasma, Group B1 Period 1: EE2/NET alone, read-out: NET AUC0-t, Median): 38.7 ng·h/mL
AUC(0-inf) (female, human, plasma, Group B1 Period 1: EE2/NET alone, read-out: NET AUC0-∞, Geometric LSMeans): 48.5 ng·h/mL
AUC(0-inf) (female, human, plasma, Group B1 Period 1: EE2/NET alone, read-out: NET AUC0-∞, Mean): 57.8 ng·h/mL
AUC(0-inf) (female, human, plasma, Group B1 Period 1: EE2/NET alone, read-out: NET AUC0-∞, Median): 45.3 ng·h/mL
Cmax (female, human, plasma, Group B1 Period 1: EE2/NET alone, read-out: NET Cmax, Geometric LSMeans): 8.09 ng/mL
Cmax (female, human, plasma, Group B1 Period 1: EE2/NET alone, read-out: NET Cmax, Mean): 9.18 ng/mL
Cmax (female, human, plasma, Group B1 Period 1: EE2/NET alone, read-out: NET Cmax, Median): 8 ng/mL
Tmax (female, human, plasma, Group B1 Period 1: EE2/NET alone, read-out: NET Tmax, Median): 1 h
half-life (female, human, plasma, Group B1 Period 1: EE2/NET alone, read-out: NET t1/2, Mean (converted)): 9.6 h
half-life (female, human, plasma, Group B1 Period 1: EE2/NET alone, read-out: NET t1/2, Median (converted)): 8.71 h
AUC(0-t) (female, human, plasma, Group B1 Period 2: EE2/NET followed by SYM-1219 2 grams on Day 1, read-out: NET AUC0-t, Geometric LSMeans): 48.7 ng·h/mL
AUC(0-t) (female, human, plasma, Group B1 Period 2: EE2/NET followed by SYM-1219 2 grams on Day 1, read-out: NET AUC0-t, Mean): 53.5 ng·h/mL
AUC(0-t) (female, human, plasma, Group B1 Period 2: EE2/NET followed by SYM-1219 2 grams on Day 1, read-out: NET AUC0-t, Median): 48.9 ng·h/mL
AUC(0-inf) (female, human, plasma, Group B1 Period 2: EE2/NET followed by SYM-1219 2 grams on Day 1, read-out: NET AUC0-∞, Geometric LSMeans): 56.4 ng·h/mL
AUC(0-inf) (female, human, plasma, Group B1 Period 2: EE2/NET followed by SYM-1219 2 grams on Day 1, read-out: NET AUC0-∞, Mean): 62.4 ng·h/mL
AUC(0-inf) (female, human, plasma, Group B1 Period 2: EE2/NET followed by SYM-1219 2 grams on Day 1, read-out: NET AUC0-∞, Median): 54.3 ng·h/mL
Cmax (female, human, plasma, Group B1 Period 2: EE2/NET followed by SYM-1219 2 grams on Day 1, read-out: NET Cmax, Geometric LSMeans): 9.16 ng/mL
Cmax (female, human, plasma, Group B1 Period 2: EE2/NET followed by SYM-1219 2 grams on Day 1, read-out: NET Cmax, Mean): 10.1 ng/mL
Cmax (female, human, plasma, Group B1 Period 2: EE2/NET followed by SYM-1219 2 grams on Day 1, read-out: NET Cmax, Median): 9.45 ng/mL
half-life (female, human, plasma, Group B1 Period 2: EE2/NET followed by SYM-1219 2 grams on Day 1, read-out: NET t1/2, Mean (converted)): 9.6 h
half-life (female, human, plasma, Group B1 Period 2: EE2/NET followed by SYM-1219 2 grams on Day 1, read-out: NET t1/2, Median (converted)): 9.12 h
AUC(0-t) (female, human, plasma, Group B2 Period 1: EE2/NET alone, read-out: NET AUC0-t, Geometric LSMeans): 46.9 ng·h/mL
AUC(0-t) (female, human, plasma, Group B2 Period 1: EE2/NET alone, read-out: NET AUC0-t, Mean): 61.4 ng·h/mL
AUC(0-t) (female, human, plasma, Group B2 Period 1: EE2/NET alone, read-out: NET AUC0-t, Median): 41.7 ng·h/mL
AUC(0-inf) (female, human, plasma, Group B2 Period 1: EE2/NET alone, read-out: NET AUC0-∞, Geometric LSMeans): 55.1 ng·h/mL
AUC(0-inf) (female, human, plasma, Group B2 Period 1: EE2/NET alone, read-out: NET AUC0-∞, Mean): 75 ng·h/mL
AUC(0-inf) (female, human, plasma, Group B2 Period 1: EE2/NET alone, read-out: NET AUC0-∞, Median): 47.4 ng·h/mL
Cmax (female, human, plasma, Group B2 Period 1: EE2/NET alone, read-out: NET Cmax, Geometric LSMeans): 8.36 ng/mL
Cmax (female, human, plasma, Group B2 Period 1: EE2/NET alone, read-out: NET Cmax, Mean): 9.63 ng/mL
Cmax (female, human, plasma, Group B2 Period 1: EE2/NET alone, read-out: NET Cmax, Median): 8.16 ng/mL
half-life (female, human, plasma, Group B2 Period 1: EE2/NET alone, read-out: NET t1/2, Mean (converted)): 10 h
half-life (female, human, plasma, Group B2 Period 1: EE2/NET alone, read-out: NET t1/2, Median (converted)): 9.29 h
AUC(0-t) (female, human, plasma, Group B2 Period 2: SYM-1219 2 grams on Day 1, EE2/NET on Day 2, read-out: NET AUC0-t, Geometric LSMeans): 51.9 ng·h/mL
AUC(0-t) (female, human, plasma, Group B2 Period 2: SYM-1219 2 grams on Day 1, EE2/NET on Day 2, read-out: NET AUC0-t, Mean): 61.2 ng·h/mL
AUC(0-t) (female, human, plasma, Group B2 Period 2: SYM-1219 2 grams on Day 1, EE2/NET on Day 2, read-out: NET AUC0-t, Median): 44.5 ng·h/mL
AUC(0-inf) (female, human, plasma, Group B2 Period 2: SYM-1219 2 grams on Day 1, EE2/NET on Day 2, read-out: NET AUC0-∞, Geometric LSMeans): 60 ng·h/mL
AUC(0-inf) (female, human, plasma, Group B2 Period 2: SYM-1219 2 grams on Day 1, EE2/NET on Day 2, read-out: NET AUC0-∞, Mean): 71.5 ng·h/mL
AUC(0-inf) (female, human, plasma, Group B2 Period 2: SYM-1219 2 grams on Day 1, EE2/NET on Day 2, read-out: NET AUC0-∞, Median): 51.6 ng·h/mL
Cmax (female, human, plasma, Group B2 Period 2: SYM-1219 2 grams on Day 1, EE2/NET on Day 2, read-out: NET Cmax, Geometric LSMeans): 9.74 ng/mL
Cmax (female, human, plasma, Group B2 Period 2: SYM-1219 2 grams on Day 1, EE2/NET on Day 2, read-out: NET Cmax, Mean): 10.7 ng/mL
Cmax (female, human, plasma, Group B2 Period 2: SYM-1219 2 grams on Day 1, EE2/NET on Day 2, read-out: NET Cmax, Median): 9.39 ng/mL
half-life (female, human, plasma, Group B2 Period 2: SYM-1219 2 grams on Day 1, EE2/NET on Day 2, read-out: NET t1/2, Mean (converted)): 9.51 h
half-life (female, human, plasma, Group B2 Period 2: SYM-1219 2 grams on Day 1, EE2/NET on Day 2, read-out: NET t1/2, Median (converted)): 9.19 h
